In patent US20110178041A1, “HETEROCYCLIC BIARYL DERIVATIVE AND PDE INHIBITOR COMPRISING SAME AS ACTIVE INGREDIENT” (priority 2008, published 2011):

Assays:
[1] = target: T1, PDE4B catalytic zone (PDE4Bcat) (Homo sapiens, UniProt Q07343); test: Phosphodiesterase 4 inhibitory activity ([3H]-cAMP, recombinant PDE4Bcat); type: biochemical; details: 30° C. 20 minutes, read-out: IC50 (μmol/L) PDE4
T1 construct: made in house; host or cells: Sf9 insect cells (baculovirus, Bac-to-Bac / Gateway)

[2] = target: T2, PDE3A catalytic zone (PDE3Acat) (Homo sapiens, UniProt Q14432); test: Phosphodiesterase 3-inhibitory activity ([3H]-cAMP, recombinant PDE3Acat); type: biochemical; details: 30° C. 20 minutes, read-out: IC50 value, PDE3
T2 construct: made in house; host or cells: Sf9 insect cells (baculovirus, Bac-to-Bac / Gateway)

[3] = test system: LPS-induced pulmonary inflammation (total leukocytes in BALF); test: LPS-induced pulmonary inflammation in rats; type: in vivo; details: Leukocyte; rat, 3 mg/kg oral one hour before LPS inhalation, BALF 3 hours after LPS; read-out: rate of inhibition of total number of leukocytes in BALF
Method: One hour before the inhalation of lipopolysaccharide from E. coli serotype 055:B5 (LPS), each candidate compound was orally administered to each test rat in a dose of 3 mg/kg, and then the test animal was allowed to inhale an LPS solution (50 mL) over 30 minutes, while the solution was atomized using a nebulizer. After 3 hours from the LPS-inhalation, the rats were euthanized by the administration of a 20% urethane solution (5 ml/rat, i.p.). The bronchial cannula was inserted through the trachea. Broncoalveolar lavage was performed by injecting 5 ml physiological saline, three consecutive times using a 5 mL volume syringe. The operations were repeated twice and these physiological saline samples were recovered as broncoalveolar lavage fluid (BALF). Each of the BALF thus recovered was centrifuged at 1200 rpm and 4° C. for 10 minutes (Hirtachi; himac […]), the resulting residue was again suspended in 10 mL of 0.1% bovine serum albumin-containing physiological saline, an equivalent volume of Turk's diluting fluid was added to the suspension to thus stain the leukocytes present therein and the total number of leukocytes was determined under the microscopic observation to thus calculate the rate of inhibition.

T1 sequence (Q07343 330-659 limits assumed): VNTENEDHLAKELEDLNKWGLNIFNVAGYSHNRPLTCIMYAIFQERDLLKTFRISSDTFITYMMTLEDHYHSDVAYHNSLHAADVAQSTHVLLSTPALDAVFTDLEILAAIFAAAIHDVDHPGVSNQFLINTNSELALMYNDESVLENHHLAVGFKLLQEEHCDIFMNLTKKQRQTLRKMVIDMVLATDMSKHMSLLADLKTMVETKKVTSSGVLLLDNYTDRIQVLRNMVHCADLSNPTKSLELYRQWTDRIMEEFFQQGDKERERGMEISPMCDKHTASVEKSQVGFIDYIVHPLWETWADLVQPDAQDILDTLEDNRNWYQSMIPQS
T2 sequence (Q14432 674-1093 limits assumed): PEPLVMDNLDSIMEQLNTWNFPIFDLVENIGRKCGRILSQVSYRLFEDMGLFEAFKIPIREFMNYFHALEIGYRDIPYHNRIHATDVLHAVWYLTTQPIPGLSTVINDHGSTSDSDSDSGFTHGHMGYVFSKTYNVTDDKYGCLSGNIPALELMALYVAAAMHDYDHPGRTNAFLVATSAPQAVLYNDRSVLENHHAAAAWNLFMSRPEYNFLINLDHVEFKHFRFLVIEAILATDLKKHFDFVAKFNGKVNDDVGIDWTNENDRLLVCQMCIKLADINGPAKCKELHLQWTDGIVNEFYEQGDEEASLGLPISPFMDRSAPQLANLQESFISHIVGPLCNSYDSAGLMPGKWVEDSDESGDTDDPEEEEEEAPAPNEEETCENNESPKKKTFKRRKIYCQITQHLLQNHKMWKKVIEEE

Compound	IC50 [1] [µmol/L]	IC50 [2] [nM]	inhibition in vivo at 3 mg/kg [3] [%]
COc1ccc(-c2ccc3c(c2)CCNC3=O)c2cc(C(F)(F)F)nn12 [Example 58, 6-(7-Methoxy-2-trifluoromethylpyrazolo[1,5-a]pyridin-4-yl)-3,4-dihydroisoquinolin-1(2H)-one]	0.01 to 0.1	> 1000	≥ 60
COc1ccc(-c2ccc3c(c2)CNC3=O)c2cc(C(F)(F)F)nn12 [Example 59, 5-(7-Methoxy-2-trifluoromethylpyrazolo[1,5-a]pyridin-4-yl)isoindolin-1-one]	0.01 to 0.1	> 1000	≥ 60
COc1ccc(-c2ccc3c(=O)[nH]cc(Cl)c3c2)c2cc(C(F)(F)F)nn12 [Example 60, 4-Chloro-6-(7-methoxy-2-trifluoromethylpyrazolo[1,5-a]pyridin-4-yl)isoquinolin-1(2H)-one]	< 0.01	> 1000	≥ 60
COc1ccc(-c2ccc3c(c2)CCNC3=O)c2c(Cl)c(C(F)(F)F)nn12 [Example 62, 6-(3-Chloro-7-methoxy-2-trifluoromethylpyrazolo[1,5-a]pyridin-4-yl)-3,4-dihydroisoquinolin-1(2H)-one]	< 0.01		≥ 60
CNc1ccc(-c2ccc3c(c2)CCNC3=O)c2cc(C(F)(F)F)nn12 [Example 63, 6-(7-Methylamino-2-trifluoromethylpyrazolo[1,5-a]pyridin-4-yl)-3,4-dihydroisoquinolin-1(2H)-one]	< 0.01	> 1000	≥ 60
CNc1ccc(-c2ccc3[nH]c(=O)ccc3c2)c2cc(C(F)(F)F)nn12 [Example 64, 6-(7-Methylamino-2-trifluoromethylpyrazolo[1,5-a]pyridin-4-yl)quinolin-2(1H)-one]	< 0.01	> 1000	≥ 60
COc1ccc(-c2ccc3[nH]c(=O)ccc3c2)n2c(Cl)c(C(F)(F)F)nc12 [Example 89, 6-(3-Chloro-8-methoxy-2-(trifluoromethyl)imidazo[1,2-a]pyridin-5-yl)quinolin-2(1H)-one]	< 0.01	> 1000	≥ 60
COc1ccc(-c2ccc3c(c2)CCC(=O)N3C)c2cc(C(F)(F)F)nn12 [Example 102, 6-(7-Methoxy-2-trifluoromethylpyrazolo[1,5-a]pyridin-4-yl)-1-methyl-3,4-dihydroquinolin-2(1H)-one]	0.01 to 0.1	> 1000	≥ 60
COc1ccc(-c2ccc3c(ccc(=O)n3C)c2)c2c(Cl)c(C(F)(F)F)nn12 [Example 115, 6-(3-Chloro-7-methoxy-2-trifluoromethylpyrazolo[1,5-a]pyridin-4-yl)-1-methylquinolin-2(1H)-one]	< 0.01	> 1000	≥ 60
COc1ccc(-c2ccc3c(c2)CCNC3=O)c2cc(C3CC3)nn12 [Example 121, 6-(2-Cyclopropyl-7-methoxypyrazolo[1,5-a]pyridin-4-yl)-3,4-dihydroisoquinolin-1(2H)-one]	0.01 to 0.1	> 1000	≥ 60
CNc1ccc(-c2ccc3[nH]c(=O)ccc3c2)n2c(Cl)c(C(F)(F)F)nc12 [Example 142, 6-(3-Chloro-8-methylamino-2-trifluoromethylimidazo[1,2-a]pyridin-5-yl)quinolin-2(1H)-one]	< 0.01	> 1000	≥ 60
CNc1ccc(-c2ccc3c(c2)CCNC3=O)n2c(Cl)c(C(F)(F)F)nc12 [Example 143, 6-(3-Chloro-8-methylamino-2-trifluoromethylimidazo[1,2-a]pyridin-5-yl)-3,4-dihydroisoquinolin-1(2H)-one]	< 0.01	> 1000	≥ 60
CNc1ccc(-c2ccc3c(=O)[nH]cc(Cl)c3c2)n2c(Cl)c(C(F)(F)F)nc12 [Example 145, 4-Chloro-6-(3-chloro-8-(methylamino)-2-trifluoromethylimidazo[1,2-a]pyridin-5-yl)isoquinolin-1(2H)-one]	< 0.01		
Nc1ccc(-c2ccc3c(=O)[nH]cc(Cl)c3c2)n2cc(C(F)(F)F)nc12 [Example 146, 6-(8-Amino-2-trifluoromethylimidazo[1,2-a]pyridin-5-yl)-4-chloro-isoquinolin-1(2H)-one]	0.01 to 0.1		
